Source: patent publication US9562085B2, “Antimicrobial peptide” (priority 2013, dated 2017)
Residues, ends and D or L forms follow the SMILES beside them. *: point of attachment. Propionyl = CCC(=O)*

Each compound was assayed on S. aureus JAR. Details: JAR, 2 h.
Type: cell-based
Description: S. aureus JAR is described in Campoccia et al. (Int. J. Artif. Organs, 2008 September; 31(9):841-7).
For the in vitro killing assay with P10 variants, S. aureus JAR ([…] CFU/ml) were incubated for 2 hours at 37° C. with various concentrations of the peptides in PBS or in PBS/human plasma (1/1, v/v). […] The LC99.9 is the average value of two independent experiments.

“Ac-LAREYKKIVEKLKRWLHQVLRTLR-NH2 [Peptide 1302-41, JLAREYKKIVEKLKRWLHQVLRTLRB]” was tested. Which “LC99.9 (μM) (50% plasma)” value did it give?
The value was 102.4 µM.

And the “LC99.9 (μM) (PBS)” value?
Its value is 1.6 µM.

“Ac-LAREYKKIVEKLKRWLRAVLRTLR-NH2 [Peptide 1302-43, JLAREYKKIVEKLKRWLRAVLRTLRB]” was tested. Which “LC99.9 (μM) (50% plasma)” value did it give?
The value was 102.4 µM.

And the “LC99.9 (μM) (PBS)” value?
The value was 1.6 µM.

Which results are given for “Ac-LAREYKKIVEKLKRWLRNVLRTLR-NH2 [Peptide 1302-42, JLAREYKKIVEKLKRWLRNVLRTLRB]”?
LC99.9 (μM) (50% plasma): 76.8 µM; LC99.9 (μM) (PBS): 1.6 µM

Which “LC99.9 (μM) (50% plasma)” value does the source give for “Ac-LAREYKKIVEKLKRWLRQLLRTLR-NH2 [Peptide 1302-46, JLAREYKKIVEKLKRWLRQLLRTLRB]” here?
The value was 102.4 µM.

And the “LC99.9 (μM) (PBS)” value?
Its value is 1.6 µM.

With “Ac-LAREYKKIVEKLKRWLRQVIRTLR-NH2 [Peptide 1302-47, JLAREYKKIVEKLKRWLRQVIRTLRB]” as the compound, how does the “LC99.9 (μM) (50% plasma)” value read?
The value was 76.8 µM.

And the “LC99.9 (μM) (PBS)” value?
The value was 1.6 µM.

Which results are given for “Ac-LAREYKKIVEKLKRWLRQVL-NH2 [Peptide 1302-60, JLAREYKKIVEKLKRWLRQVLB]”?
LC99.9 (μM) (50% plasma): 102.4 µM; LC99.9 (μM) (PBS): 1.6 µM

For “Ac-LAREYKKIVEKLKRWLRQVLHTLR-NH2 [Peptide 1302-51, JLAREYKKIVEKLKRWLRQVLHTLRB]”, which “LC99.9 (μM) (50% plasma)” value is on record?
The value was 102.4 µM.

What about the “LC99.9 (μM) (PBS)” value of the same compound?
Its value is 1.6 µM.

“Ac-LAREYKKIVEKLKRWLRQVLKTLR-NH2 [Peptide 1302-50, JLAREYKKIVEKLKRWLRQVLKTLRB]” was tested. Which “LC99.9 (μM) (50% plasma)” value did it give?
Its value is 51.2 µM.

And the “LC99.9 (μM) (PBS)” value?
Its value is 0.8 µM.

Which “LC99.9 (μM) (50% plasma)” value does the source give for “Ac-LAREYKKIVEKLKRWLRQVLRALR-NH2 [Peptide 1302-54, JLAREYKKIVEKLKRWLRQVLRALRB]” here?
The value was 51.2 µM.

And the “LC99.9 (μM) (PBS)” value?
The value was 0.8 µM.

How did the “LC99.9 (μM) (50% plasma)” value turn out when “Ac-LAREYKKIVEKLKRWLRQVLRNLR-NH2 [Peptide 1302-53, JLAREYKKIVEKLKRWLRQVLRNLRB]” was run?
The value was 51.2 µM.

And the “LC99.9 (μM) (PBS)” value?
Its value is 1.6 µM.

“Ac-LAREYKKIVEKLKRWLRQVLRQLR-NH2 [Peptide 1302-52, JLAREYKKIVEKLKRWLRQVLRQLRB]” was tested. Which “LC99.9 (μM) (50% plasma)” value did it give?
The value was 76.8 µM.

What about the “LC99.9 (μM) (PBS)” value of the same compound?
Its value is 1.6 µM.

With “Ac-LAREYKKIVEKLKRWLRQVLRT-NH2 [Peptide 1302-57, JLAREYKKIVEKLKRWLRQVLRTB]” as the compound, how does the “LC99.9 (μM) (50% plasma)” value read?
Its value is 51.2 µM.

And the “LC99.9 (μM) (PBS)” value?
Its value is 1.6 µM.

“Ac-LAREYKKIVEKLKRWLRQVLRTLH-NH2 [Peptide 1302-55, JLAREYKKIVEKLKRWLRQVLRTLHB]” was tested. Which “LC99.9 (μM) (50% plasma)” value did it give?
Its value is 102.4 µM.

What about the “LC99.9 (μM) (PBS)” value of the same compound?
Its value is 1.2 µM.

For “Ac-LAREYKKIVEKLKRWLRQVVRTLR-NH2 [Peptide 1302-48, JLAREYKKIVEKLKRWLRQVVRTLRB]”, which “LC99.9 (μM) (50% plasma)” value is on record?
Its value is 76.8 µM.

And the “LC99.9 (μM) (PBS)” value?
Its value is 1.2 µM.

Which “LC99.9 (μM) (50% plasma)” value does the source give for “Ac-LAREYKKIVEKLKRWLRSVLRTLR-NH2 [Peptide 1302-44, JLAREYKKIVEKLKRWLRSVLRTLRB]” here?
The value was 76.8 µM.

What about the “LC99.9 (μM) (PBS)” value of the same compound?
The value was 1.6 µM.

Same assay, conditions: S. aureus JAR, 2 hours at 37° C. in PBS/human plasma (1/1, v/v); concentration killing 99.9% of the bacteria; average of two experiments

How did the “LC99.9 (μM) (50% plasma)” value turn out when CCC(=O)N[C@@H](CC(C)C)C(=O)N[C@@H](C)C(=O)N[C@@H](CCCNC(=N)N)C(=O)N[C@@H](CCC(=O)O)C(=O)N[C@@H](Cc1ccc(O)cc1)C(=O)N[C@@H](CCCCN)C(=O)N[C@@H](CCCCN)C(=O)N[C@H](C(=O)N[C@H](C(=O)N[C@@H](CCC(=O)O)C(=O)N[C@@H](CCCCN)C(=O)N[C@@H](CC(C)C)C(=O)N[C@@H](CCCCN)C(=O)N[C@@H](CCCNC(=N)N)C(=O)N[C@@H](Cc1c[nH]c2ccccc12)C(=O)N[C@@H](CC(C)C)C(=O)N[C@@H](CCCNC(=N)N)C(=O)N[C@@H](CCC(N)=O)C(=O)N[C@H](C(=O)N[C@@H](CC(C)C)C(=O)N[C@@H](CCCNC(=N)N)C(=O)N[C@H](C(=O)N[C@@H](CC(C)C)C(=O)N[C@@H](CCCNC(=N)N)C(N)=O)[C@@H](C)O)C(C)C)C(C)C)[C@@H](C)CC [Peptide 1302-11, ULAREYKKIVEKLKRWLRQVLRTLRB] (Propionyl-LAREYKKIVEKLKRWLRQVLRTLR-NH2) was run?
Its value is 102.4 µM.

How did the “LC99.9 (μM) (50% plasma)” value turn out when “Ac-LAREYKKIVEKLKRWLRQVARTLR-NH2 [Peptide 1302-49, JLAREYKKIVEKLKRWLRQVARTLRB]” was run?
The value was 51.2 µM.

Same assay, conditions: S. aureus JAR, 2 hours at 37° C. in PBS; concentration killing 99.9% of the bacteria; average of two experiments

Which “LC99.9 (μM) (PBS)” value does the source give for CCC(=O)N[C@@H](CC(C)C)C(=O)N[C@@H](C)C(=O)N[C@@H](CCCNC(=N)N)C(=O)N[C@@H](CCC(=O)O)C(=O)N[C@@H](Cc1ccc(O)cc1)C(=O)N[C@@H](CCCCN)C(=O)N[C@@H](CCCCN)C(=O)N[C@H](C(=O)N[C@H](C(=O)N[C@@H](CCC(=O)O)C(=O)N[C@@H](CCCCN)C(=O)N[C@@H](CC(C)C)C(=O)N[C@@H](CCCCN)C(=O)N[C@@H](CCCNC(=N)N)C(=O)N[C@@H](Cc1c[nH]c2ccccc12)C(=O)N[C@@H](CC(C)C)C(=O)N[C@@H](CCCNC(=N)N)C(=O)N[C@@H](CCC(N)=O)C(=O)N[C@H](C(=O)N[C@@H](CC(C)C)C(=O)N[C@@H](CCCNC(=N)N)C(=O)N[C@H](C(=O)N[C@@H](CC(C)C)C(=O)N[C@@H](CCCNC(=N)N)C(N)=O)[C@@H](C)O)C(C)C)C(C)C)[C@@H](C)CC [Peptide 1302-11, ULAREYKKIVEKLKRWLRQVLRTLRB] (Propionyl-LAREYKKIVEKLKRWLRQVLRTLR-NH2) here?
Its value is 1.6 µM.

Which “LC99.9 (μM) (PBS)” value does the source give for “Ac-LAREYKKIVEKLKRWLRQVARTLR-NH2 [Peptide 1302-49, JLAREYKKIVEKLKRWLRQVARTLRB]” here?
The value was 1.6 µM.
